Test results taken from patent publication US10428080B2, “TBK/IKK inhibitor compounds and uses thereof” (Merck Patent GmbH, priority 2015, dated 2019).
Structures can show the parent of a compound that is named as a salt.

Assays:
[1] = biological target: T1, TBK1 (Homo sapiens, UniProt Q9UHD2); assay: TBK Biochemical Assay; conditions: read-out: TBK1 IC50
T1 sequence (Q9UHD2 1-729): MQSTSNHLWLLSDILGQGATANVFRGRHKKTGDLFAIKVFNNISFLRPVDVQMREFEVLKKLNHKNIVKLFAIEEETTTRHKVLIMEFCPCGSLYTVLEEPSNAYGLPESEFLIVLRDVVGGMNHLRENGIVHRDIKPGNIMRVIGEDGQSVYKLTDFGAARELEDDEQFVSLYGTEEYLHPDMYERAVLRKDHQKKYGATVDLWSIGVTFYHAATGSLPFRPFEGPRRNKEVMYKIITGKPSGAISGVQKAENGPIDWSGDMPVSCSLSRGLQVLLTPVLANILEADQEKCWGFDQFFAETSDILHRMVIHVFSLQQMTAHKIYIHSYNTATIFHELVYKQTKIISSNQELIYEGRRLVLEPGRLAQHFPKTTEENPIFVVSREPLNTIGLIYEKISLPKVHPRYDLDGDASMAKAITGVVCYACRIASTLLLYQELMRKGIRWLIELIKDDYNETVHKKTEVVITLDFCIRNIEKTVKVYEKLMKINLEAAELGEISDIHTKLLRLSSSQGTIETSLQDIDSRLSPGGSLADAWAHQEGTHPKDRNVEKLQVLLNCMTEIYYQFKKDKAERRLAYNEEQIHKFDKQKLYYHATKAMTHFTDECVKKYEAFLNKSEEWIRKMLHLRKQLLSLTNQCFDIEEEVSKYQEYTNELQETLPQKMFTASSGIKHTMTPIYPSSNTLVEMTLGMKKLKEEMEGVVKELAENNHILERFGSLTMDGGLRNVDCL
Summary of the method: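 Caliper LabChip mobility-shift readout of substrate and product after 90 min of TBK1 reaction at 25° C and stop-buffer addition. Compounds tested in 1:4 serial dilution over 10 points from 30 uM final at 1% DMSO; staurosporine 10 uM final defines full inhibition.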

[2] = biological target: T2, IKKε (Homo sapiens, UniProt Q14164); assay: IKKe Biochemical Assay; conditions: read-out: IKKε IC50
T2 sequence (Q14164 1-716): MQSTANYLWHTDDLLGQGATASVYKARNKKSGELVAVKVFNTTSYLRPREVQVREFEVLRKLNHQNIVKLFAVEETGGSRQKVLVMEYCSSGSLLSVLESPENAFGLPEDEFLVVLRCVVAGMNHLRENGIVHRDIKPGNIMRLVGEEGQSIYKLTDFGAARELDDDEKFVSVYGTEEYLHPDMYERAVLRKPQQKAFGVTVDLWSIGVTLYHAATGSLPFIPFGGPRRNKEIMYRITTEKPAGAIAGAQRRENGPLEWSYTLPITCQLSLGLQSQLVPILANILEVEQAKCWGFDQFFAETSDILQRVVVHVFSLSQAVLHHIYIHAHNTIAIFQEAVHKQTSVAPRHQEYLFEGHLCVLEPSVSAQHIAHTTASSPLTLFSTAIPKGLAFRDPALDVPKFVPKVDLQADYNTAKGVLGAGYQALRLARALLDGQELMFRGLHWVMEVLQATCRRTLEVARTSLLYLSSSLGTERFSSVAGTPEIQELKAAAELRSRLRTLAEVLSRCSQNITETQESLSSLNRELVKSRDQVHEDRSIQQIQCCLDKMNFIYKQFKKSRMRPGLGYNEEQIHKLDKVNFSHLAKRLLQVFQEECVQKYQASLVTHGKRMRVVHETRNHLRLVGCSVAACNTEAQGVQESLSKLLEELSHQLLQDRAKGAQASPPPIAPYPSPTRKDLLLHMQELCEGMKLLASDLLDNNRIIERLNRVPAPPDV
Summary of the method: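 Activity was measured as mobility-shift separation of phosphorylated from unphosphorylated substrate on a LabChip EZ Reader. Compound was titrated from 30 uM final in 10 points, 1:4 steps, with 1% DMSO, and enzyme plus substrate reacted 90 min at 25° C before stop buffer. Control wells held 10 uM staurosporine.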

Row | Structure (SMILES) | IC50 [1] [µM] | IC50 [2] [µM]
1 | CN(C)C(=O)c1ccc(-c2cc3nccc(-c4ccc(Oc5cccnc5)c(C#N)c4)c3o2)cc1 [Compound 181, 4-{7-[3-Cyano-4-(pyridin-3-yloxy)-phenyl]-furo[3,2-b]pyridin-2-yl}-N,N-dimethyl-benzamide] | 0.1 to 1 | 0.1 to 1
2 | COc1cc(C(=O)N2CC3CC(C2)O3)ccc1-c1cc2nccc(-c3ccc(OC4CCOCC4)c(C#N)c3)c2o1 [Compound 6, 5-{2-[2-Methoxy-4-(6-oxa-3-aza-bicyclo[3.1.1]heptane-3-carbonyl)-phenyl]-furo[3,2-b]pyridin-7-yl}-2-(tetrahydro-pyran-4-yloxy)-benzonitrile] | < 0.1 | < 0.1
3 | COc1cc(C(=O)N(C)C)cnc1-c1cc2ncc(OC)c(-c3ccc(NC4CCOCC4)c(C#N)n3)c2o1 [Compound 358, 6-(7-[6-cyano-5-[(oxan-4-yl)amino]pyridin-2-yl]-6-methoxyfuro[3,2-b]pyridin-2-yl)-5-methoxy-N,N-dimethylpyridine-3-carboxamide] | 1 to 5 | 1 to 5
4 | COc1cc(C(=O)N2CC(C)(O)C2)ccc1-c1cc2nccc(-c3ccc(OC4CCOCC4)c(C#N)c3)c2o1 [Compound 48, 5-{2-[4-(3-Hydroxy-3-methyl-azetidine-1-carbonyl)-2-methoxy-phenyl]-furo[3,2-b]pyridin-7-yl}-2-(tetrahydro-pyran-4-yloxy)-benzonitrile] | < 0.1 | < 0.1
5 | CN(CCO)C(=O)c1ccc(-c2cc3ncc(Cl)c(-c4ccc(OC5CCOCC5)c(C#N)c4)c3o2)c(F)c1 [Compound 267, 4-(6-chloro-7-(3-cyano-4-(tetrahydro-2H-pyran-4-yloxy)phenyl)furo[3,2-b]pyridin-2-yl)-3-fluoro-N-(2-hydroxyethyl)-N-methylbenzamide] | 1 to 5 | > 5
6 | COc1cc(C(=O)N(C)CCO)cnc1-c1cc2ncc(C3CC3)c(-c3ccc(OC4CCOCC4)c(C#N)n3)c2o1 [Compound 363, 6-[7-[6-cyano-5-(oxan-4-yloxy)pyridin-2-yl]-6-cyclopropylfuro[3,2-b]pyridin-2-yl]-N-(2-hydroxyethyl)-5-methoxy-N-methylpyridine-3-carboxamide hydrochloride] | > 5 | > 5
7 | COc1cc(C(=O)N(C)CCO)cnc1-c1cc2ncc(C)c(-c3ccc(OC4CCOCC4)c(C#N)c3)c2o1 [Compound 330, 6-(7-(3-cyano-4-(tetrahydro-2H-pyran-4-yloxy)phenyl)-6-methylfuro[3,2-b]pyridin-2-yl)-N-(2-hydroxyethyl)-5-methoxy-N-methylnicotinamide] | 1 to 5 | 1 to 5
8 | CN(C)C(=O)c1ccc(-c2cc3nccc(-c4ccc(OC5CCOCC5)c(C#N)c4)c3o2)c(C(F)(F)F)c1 [Compound 240, 4-(7-(3-cyano-4-(tetrahydro-2H-pyran-4-yloxy)phenyl)furo[3,2-b]pyridin-2-yl)-N,N-dimethyl-3-(trifluoromethyl)benzamide] | 0.1 to 1 | 0.1 to 1
9 | CN(C)C(=O)c1ccc(-c2cc3nccc(-c4ccc(O)c(C#N)c4)c3o2)cc1 [Compound 175, 4-[7-(3-Cyano-4-hydroxy-phenyl)-furo[3,2-b]pyridin-2-yl]-N,N-dimethyl-benzamide] | 0.1 to 1 | 0.1 to 1
10 | N#Cc1cc(-c2ccnc3cc(-c4ccc(C(=O)O)cc4)oc23)ccc1OC1CC(CO)(CCl)C1 (centres unmarked) [Compound 162] | 0.1 to 1 | < 0.1
11 | COc1cc(C(=O)N(C)CCO)cnc1-c1cc2ncc(Cl)c(-c3ccc(OC4CCOCC4)c(C#N)c3)c2o1 [Compound 342, 6-[6-chloro-7-[3-cyano-4-(oxan-4-yloxy)phenyl]furo[3,2-b]pyridin-2-yl]-N-(2-hydroxyethyl)-5-methoxy-N-methylpyridine-3-carboxamide hydrochloride] | 1 to 5 | 1 to 5
12 | COc1cc(C(=O)N2CC3CCCC3C2)ccc1-c1cc2nccc(-c3ccc(OC4CCOCC4)c(C#N)c3)c2o1 (centres unmarked) [Compound 99, 5-{2-[4-(Hexahydro-cyclopenta[c]pyrrole-2-carbonyl)-2-methoxy-phenyl]-furo[3,2-b]pyridin-7-yl}-2-(tetrahydro-pyran-4-yloxy)-benzonitrile] | < 0.1 | < 0.1
13 | COc1cc(C(=O)N(C)C)cnc1-c1cc2nccc(-c3ccc(OC4CCOCC4)c(C#N)c3)c2o1 [Compound 274, 6-(7-(3-cyano-4-(tetrahydro-2H-pyran-4-yloxy)phenyl)furo[3,2-b]pyridin-2-yl)-5-methoxy-N,N-dimethylnicotinamide hydrochloride] | < 0.1 | < 0.1
14 | COc1cc(C(=O)N(C)C)cnc1-c1cc2ncc(C3CC3)c(-c3ccc(OC4CCOCC4)c(C#N)c3)c2o1 [Compound 323, 6-(7-(3-cyano-4-(tetrahydro-2H-pyran-4-yloxy)phenyl)-6-cyclopropylfuro[3,2-b]pyridin-2-yl)-5-methoxy-N,N-dimethylnicotinamide] | > 5 | > 5

More lines, now with the values ahead:

Row | IC50 [1] [µM] | IC50 [2] [µM] | Structure (SMILES)
15 | < 0.1 | < 0.1 | COc1cc(C(=O)N(C)C)ccc1-c1cc2nccc(-c3cc(F)c(N(C)C4CCOCC4)c(C#N)c3)c2o1 [Compound 237, 4-(7-(3-cyano-5-fluoro-4-(methyl(tetrahydro-2H-pyran-4-yl)amino)phenyl)furo[3,2-b]pyridin-2-yl)-3-methoxy-N,N-dimethylbenzamide]
16 | > 5 | 1 to 5 | CC1CC(Oc2ccc(-c3ccnc4cc(-c5ccc(C(=O)O)cc5)oc34)cc2C#N)CC(C)O1 (centres unmarked) [Compound 189]
17 | < 0.1 | < 0.1 | CCCN(C)C(=O)c1ccc(-c2cc3nccc(-c4ccc(OC5CCOCC5)c(C#N)c4)c3o2)c(OC)c1 [Compound 257, 4-(7-(3-cyano-4-(tetrahydro-2H-pyran-4-yloxy)phenyl)furo[3,2-b]pyridin-2-yl)-3-methoxy-N-methyl-N-propylbenzamide hydrochloride]
18 | 0.1 to 1 | 0.1 to 1 | COc1cc(C(=O)NCC2CCCCC2(F)F)ccc1-c1cc2nccc(-c3ccc(NC4CCOCC4)c(C#N)c3)c2o1 (centres unmarked) [Compound 180, 4-{7-[3-Cyano-4-(tetrahydro-pyran-4-ylamino)-phenyl]-furo[3,2-b]pyridin-2-yl}-N-(2,2-difluoro-cyclohexylmethyl)-3-methoxy-benzamide]
19 | 0.1 to 1 | 0.1 to 1 | COc1cc(C(=O)N(C)C)ccc1-c1cc2nccc(-c3ccc(OCC4CNC4)c(C#N)c3)c2o1 [Compound 165, 4-{7-[4-(Azetidin-3-ylmethoxy)-3-cyano-phenyl]-furo[3,2-b]pyridin-2-yl}-3-methoxy-N,N-dimethyl-benzamide]
20 | 0.1 to 1 | < 0.1 | COc1cc(C(=O)N(C)C)ccc1-c1cc2nccc(-c3ccc(NC4CC(C)OC(C)C4)c(C#N)c3)c2o1 (centres unmarked) [Compound 228, 4-(7-(3-cyano-4-(2,6-dimethyl-tetrahydro-2H-pyran-4-ylamino)phenyl)furo[3,2-b]pyridin-2-yl)-3-methoxy-N,N-dimethylbenzamide]
21 | 0.1 to 1 | < 0.1 | COc1cc(C(=O)N(C)C)ccc1-c1cc2nccc(-c3ccc(OC4CCN(C(C)C)C4)c(C#N)c3)c2o1 (centres unmarked) [Compound 157, 4-{7-[3-Cyano-4-(1-isopropyl-pyrrolidin-3-yloxy)-phenyl]-furo[3,2-b]pyridin-2-yl}-3-methoxy-N,N-dimethyl-benzamide]
22 | 0.1 to 1 | 0.1 to 1 | CN(C)C(=O)c1ccc(-c2cc3nccc(-c4ccc(NC5CCOCC5)c(C#N)c4)c3o2)cc1 [Compound 194, 4-(7-(3-cyano-4-(tetrahydro-2H-pyran-4-ylamino)phenyl)furo[3,2-b]pyridin-2-yl)-N,N-dimethylbenzamide hydrochloride]
